Earlier results in patent US12653831B2, “Methods for the non-toxic treatment for opioid drug withdrawal combining noribogaine and cannabinoids” (priority 2019, dated 2026).
Where two headings read alike, the source gives them in different places.

Experiments:
[1] = test system: β-amyloid-injected mice; details: subchronic administration for 3 weeks
[2] = test system: rat primary microglia; details: ATP 400 μM
[3] = test system: primary microglia; details: for sensitivity of the induced migration to cannabinoid receptor antagonists: with CB(1)/CB(2) antagonists
[4] = test system: N13 microglial cells; details: ATP 400 μM, cultured N13 microglial cells
[5] = biological target: CB2 receptors (Homo sapiens, UniProt P34972)
[6] = not given; remark: listed apart in the source
[7] = high doses, various animal models

Chain of CB2 receptors (P34972 whole entry): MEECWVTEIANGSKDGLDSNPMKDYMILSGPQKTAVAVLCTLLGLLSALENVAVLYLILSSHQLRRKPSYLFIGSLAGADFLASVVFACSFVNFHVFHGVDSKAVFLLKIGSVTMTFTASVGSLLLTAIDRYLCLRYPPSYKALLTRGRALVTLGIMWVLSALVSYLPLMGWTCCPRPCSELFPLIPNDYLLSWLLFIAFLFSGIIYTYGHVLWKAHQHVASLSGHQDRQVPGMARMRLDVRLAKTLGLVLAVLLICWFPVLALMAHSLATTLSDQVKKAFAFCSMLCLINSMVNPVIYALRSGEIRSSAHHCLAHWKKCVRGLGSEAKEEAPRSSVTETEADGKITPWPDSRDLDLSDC

For `C=C(C)[C@@H]1CCC(C)=C[C@H]1c1c(O)cc(CCCCC)cc1O` [CBD, cannabidiol], the cytokine gene expression [1] is listed as “able to prevent”, the “learning of a spatial navigation task” value [1] is listed as “able to prevent” and the “effect on ATP-induced increase in intracellular calcium ([Ca(2+)](i))” value [2] is listed as “concentration-dependently decreased”. The “effect on primary microglia migration” value [3] was “promoted”, the “sensitivity of the induced migration to cannabinoid receptor antagonists” value (“sensitivity of the induced migration” below) [3] was “blocked by CB(1) and/or CB(2) antagonists” and the “effect on ATP-induced increase in intracellular calcium ([Ca(2+)](i))” value [4] was “concentration-dependently decreased”. The tolerability (in humans) was “well tolerated without side effects”, the “psychoactive or cognitive effects” value (in vivo) was “does not induce psychoactive or cognitive effects” and the “binding to CB2 receptors” value [5] was “binds very weakly”.

For `CCCCCCC(C)(C)c1cc(OC)c([C@@H]2C=C(CO)[C@@H]3C[C@H]2C3(C)C)c(OC)c1` [HU-308], the “effect on ATP-induced increase in intracellular calcium ([Ca(2+)](i))” value [2] is given as “without effect”, the “effect on primary microglia migration” value [3] is given as “induced” and the “sensitivity of the induced migration” value [3] is given as “blocked by a CB(2) antagonist only”. The “effect on ATP-induced increase in intracellular calcium ([Ca(2+)](i))” value [4] was “without effect”.

In the case of `Cc1c(C(=O)c2cccc3ccccc23)c2cccc3c2n1[C@H](CN1CCOCC1)CO3` [WIN 55,212-2, (R)-(+)-[2,3-dihydro-5-methyl-3-(4-morpholinylmethyl)pyrrolo-[1,2,3-d,e]-1,4-benzoxazin-6-yl]-1-naphthalenyl-methanone], the cytokine gene expression [1] is listed as “able to prevent”, the “learning of a spatial navigation task” value [1] is listed as “able to prevent” and the “effect on ATP-induced increase in intracellular calcium ([Ca(2+)](i))” value [2] is listed as “concentration-dependently decreased”. For the same molecule, the “effect on primary microglia migration” value [3] was “promoted”, the “sensitivity of the induced migration” value [3] was “blocked by CB(1) and/or CB(2) antagonists” and the “effect on ATP-induced increase in intracellular calcium ([Ca(2+)](i))” value [4] was “concentration-dependently decreased”.

For `CC[C@H]1CC2C[C@H]3c4[nH]c5ccc(O)cc5c4CCN(C2)C13` [noribogaine, Noribogaine], the “effect on EKG QTc interval” value ([6]; dose of 30 mg daily) is given as “shortens the QTc interval”, the “effect on EKG QTc interval” value ([6]; higher doses (above 60 mg/day)) is given as “increase QTc” and the “adverse effects in preclinical toxicity studies” value [7] is given as “serious cardiac and CNS adverse effects”.
